Laboratory results published in ChEMBL document CHEMBL4130414, “Asymmetric synthesis of novel triazole derivatives and their in vitro antiviral activity and mechanism of action” (Eur J Med Chem, 2017).
Converted amounts (≈) assume the structure as drawn. The source made the active and inactive calls. The rule behind the calls is not given here.

Tests used:
[1] = Cytotoxicity against human RD cells assessed as reduction in cell viability after 3 days by MTT assay; format: cell-based
[2] = Cytotoxicity against human Hep2 cells assessed as reduction in cell viability after 3 days by MTT assay; format: cell-based; details: HEp-2 cells
Enterovirus A71 [3] = test: Antiviral activity against EV71 Xiangyang-Hubei-09 infected in human RD cells assessed as inhibition of virus-induced cytopathic effect by MTT dye based assay; format: functional, organism-based
[4] = Selectivity index, ratio of CC50 for human RD cells to EC50 for EV71 Xiangyang-Hubei-09 infected in human RD cells; format: toxicity, cell-based; details: read-out: Ratio CC50/EC50
Coxsackievirus B3 [5] = test: Antiviral activity against Coxsackievirus B3 (strain Nancy) infected in human HEP2 cells assessed as inhibition of virus-induced cytopathic effect by MTT dye based assay; format: functional, organism-based
[6] = Selectivity index, ratio of CC50 for human HEP2 cells to EC50 for Coxsackievirus B3 (strain Nancy) infected in human HEP cells; format: toxicity, cell-based; details: HEp-2 cells, read-out: Ratio CC50/EC50
Enterovirus A71 [7] = test: Antiviral activity against EV71 Xiangyang-Hubei-09 infected in human RD cells assessed as inhibition of virus-induced cytopathic effect at 16 ug/ml treated 1 hr post viral infection measured after 48 hrs by MTT dye based assay relative to control; format: functional; details: for inhibition at 16 µg/mL: Enterovirus A, Xiangyang-Hubei-09, RD
Coxsackievirus B3 [8] = test: Antiviral activity against Coxsackievirus B3 (strain Nancy) infected in human HEP2 cells assessed as inhibition of virus-induced cytopathic effect at 16 ug/ml after 48 hrs by MTT dye based assay; format: functional, organism-based
Enterovirus A71 [9] = test: Antiviral activity against EV71 Xiangyang-Hubei-09 infected in human RD cells assessed as alteration in viral cell morphology at 16 ug/ml after 48 hrs; format: functional, organism-based
Enterovirus A71 [10] = test: Antiviral activity against EV71 Xiangyang-Hubei-09 infected in human RD cells assessed as reduction in progeny viral yield at 16 ug/ml treated 1 hr post viral infection measured after 48 hrs; format: functional
Enterovirus A71 [11] = test: Antiviral activity against EV71 Xiangyang-Hubei-09 infected in human RD cells assessed as inhibition of viral adsorption at 16 ug/ml treated simultaneously with viral infection for 2 hrs followed by washing with PBS measured after 48 hrs; format: functional, organism-based
Enterovirus A71 [12] = test: Antiviral activity against EV71 Xiangyang-Hubei-09 infected in human RD cells at 16 ug/ml preincubated with RD cells for 2 hrs followed by washing with PBS and subsequent viral infection measured after 48 hrs; format: functional, organism-based
Enterovirus A71 [13] = test: Antiviral activity against EV71 Xiangyang-Hubei-09 infected in human RD cells assessed as inhibition of virus-induced cytopathic effect at 16 ug/ml preincubated with RD cells for 2 hrs followed by washing with PBS and subsequent viral infection measured after 48 hrs by MTT assay; format: functional, organism-based
[14] = Enterovirus A, Xiangyang-Hubei-09, RD, read-out: EC50
[15] = Enterovirus B, Nancy, HEp-2, read-out: EC50

SMILES	CC50 at 72 h [1] [µg/mL]	CC50 at 72 h [2] [µg/mL]	EC50 (Enterovirus A71 [3]; [14]) [µg/mL]	selectivity ratio [4]	EC50 (Coxsackievirus B3 [5]; [15]) [µg/mL]	selectivity ratio [6]	further results
CCCC[C@H](CCn1cncn1)c1ccc(C)cc1	26.5 (≈ 103 µM)	23.7 (≈ 92.1 µM)	–	–	–	–	–
CC[C@@H](CCn1cncn1)c1ccc(C)cc1	79.4 (≈ 346 µM)	69.9 (≈ 305 µM)	5.4 (≈ 23.5 µM)	14.7	6 (≈ 26.2 µM)	11.7	inhibition (Enterovirus A71 [3]): Dose-dependent effect; inhibition (Coxsackievirus B3 [5]): Dose-dependent effect; inhibition at 16 µg/mL (Enterovirus A71 [7]): 81%; inhibition (Coxsackievirus B3 [8]): Active; inhibition (Enterovirus A71 [9]): Active; log(activity) (Enterovirus A71 [10]): 4.7; inhibition (Enterovirus A71 [11]): Active; inhibition (Enterovirus A71 [12]): inactive; inhibition (Enterovirus A71 [13]): inactive
CCCC[C@@H](CCn1cncn1)c1ccc(F)cc1	34.1 (≈ 130 µM)	36 (≈ 138 µM)	–	–	–	–	–
COc1ccc([C@H](CCn2cncn2)Cc2ccccc2)cc1	66 (≈ 215 µM)	60.3 (≈ 196 µM)	12.2 (≈ 39.7 µM)	5.4	12.2 (≈ 39.7 µM)	4.9	–
CC[C@H](CCn1cncn1)c1ccc(Cl)cc1	57 (≈ 228 µM)	50.6 (≈ 203 µM)	–	–	13.5 (≈ 54.1 µM)	3.7	EC50 (Enterovirus A71 [3]; rd): Not Active
Clc1ccc([C@@H](CCn2cncn2)Cc2ccccc2)cc1	24.4 (≈ 78.3 µM)	25.9 (≈ 83.1 µM)	–	–	–	–	–
c1ccc(C[C@H](CCn2cncn2)c2ccccc2)cc1	55.4 (≈ 200 µM)	60.9 (≈ 220 µM)	12.7 (≈ 45.8 µM)	4.4	14.9 (≈ 53.7 µM)	4.1	–
CCCC[C@@H](CCn1cncn1)c1ccc(OC)cc1	39.4 (≈ 144 µM)	31.6 (≈ 116 µM)	–	–	–	–	–
Cc1ccc(C[C@H](CCn2cncn2)c2ccccc2)cc1	37.8 (≈ 130 µM)	38.8 (≈ 133 µM)	–	–	7.4 (≈ 25.4 µM)	5.2	EC50 (Enterovirus A71 [3]; rd): Not Active
CC[C@@H](CCn1cncn1)c1ccc(F)cc1	91.6 (≈ 393 µM)	90.3 (≈ 387 µM)	–	–	–	–	EC50 (Enterovirus A71 [3]; rd): Not Active; EC50 (Coxsackievirus B3 [5]): Not Active
c1ccc(C(CCn2cncn2)C2CCCCC2)cc1 (single isomer, unassigned; 40)	9.2 (≈ 34.2 µM)	21.8 (≈ 80.9 µM)	–	–	4.7 (≈ 17.4 µM)	4.6	EC50 (Enterovirus A71 [3]; rd): Not Active
CCC[C@H](CCn1cncn1)c1ccccc1	63.1 (≈ 275 µM)	58.4 (≈ 255 µM)	–	–	–	–	–
C[C@@H](CCn1cncn1)Cc1ccccc1	114 (≈ 530 µM)	131 (≈ 609 µM)	9.1 (≈ 42.3 µM)	12.6	10.3 (≈ 47.8 µM)	12.7	inhibition (Enterovirus A71 [3]): Dose-dependent effect; inhibition (Coxsackievirus B3 [5]): Dose-dependent effect; inhibition (Enterovirus A71 [7]): Active; inhibition (Coxsackievirus B3 [8]): Active; inhibition (Enterovirus A71 [9]): Active
CC[C@@H](CCn1cncn1)c1ccccc1	91.2 (≈ 424 µM)	89.9 (≈ 418 µM)	–	–	–	–	–
CCCC[C@H](CCn1cncn1)c1ccc(OC)cc1	28.3 (≈ 104 µM)	34.5 (≈ 126 µM)	–	–	–	–	–
Clc1ccc([C@@H](CCn2cncn2)Cc2ccccc2)c(Cl)c1	6.5 (≈ 18.8 µM)	11.1 (≈ 32.1 µM)	–	–	–	–	–
Cc1ccc(C(CCn2cncn2)C2CCCCC2)cc1 (single isomer, unassigned)	57.9 (≈ 204 µM)	57.3 (≈ 202 µM)	10.6 (≈ 37.4 µM)	5.5	11.7 (≈ 41.3 µM)	4.9	–
NC(=O)c1ncn([C@@H]2O[C@H](CO)[C@@H](O)[C@H]2O)n1 [RIBAVIRIN]	486 (≈ 1990 µM)	572 (≈ 2340 µM)	32.5 (≈ 133 µM)	15	42.9 (≈ 176 µM)	13.3	inhibition (Enterovirus A71 [7]): Active; inhibition (Coxsackievirus B3 [8]): Active
c1ccc(C[C@@H](CCn2cncn2)c2ccccc2)cc1	56 (≈ 202 µM)	55.9 (≈ 202 µM)	–	–	–	–	–
CCC[C@@H](CCn1cncn1)c1ccc(F)cc1	56.9 (≈ 230 µM)	55.3 (≈ 224 µM)	–	–	–	–	–
CCC[C@@H](CCn1cncn1)c1ccc(C)cc1	74.1 (≈ 304 µM)	71.3 (≈ 293 µM)	10.9 (≈ 44.8 µM)	6.8	10.3 (≈ 42.3 µM)	6.9	–
Clc1ccc([C@H](CCn2cncn2)Cc2ccccc2)cc1	21.7 (≈ 69.6 µM)	25.7 (≈ 82.4 µM)	–	–	–	–	–
C[C@H](CCn1cncn1)Cc1ccccc1	153 (≈ 710 µM)	144 (≈ 670 µM)	6.2 (≈ 28.8 µM)	24.7	11.4 (≈ 52.9 µM)	12.6	inhibition (Enterovirus A71 [3]): Dose-dependent effect; inhibition (Coxsackievirus B3 [5]): Dose-dependent effect; inhibition at 16 µg/mL (Enterovirus A71 [7]): 72%; inhibition (Coxsackievirus B3 [8]): Active; inhibition (Enterovirus A71 [9]): Active; log(activity) (Enterovirus A71 [10]): 4.7; inhibition (Enterovirus A71 [11]): Active; inhibition (Enterovirus A71 [12]): inactive; inhibition (Enterovirus A71 [13]): inactive
